Data: ChEMBL document CHEMBL3734732, “Pyrrole- and indole-containing tranylcypromine derivatives as novel lysine-specific demethylase 1 inhibitors active on cancer cells” (Medchemcomm, 2015)

Columns and labels:
[1] = target: Lysine-specific histone demethylase 1A (Homo sapiens) (UniProt O60341); test: Inhibition of LSD1 in human NB4 cells assessed as induction of GFI-1b mRNA expression at IC50 after 24 hrs by quantitative RT-PCR analysis relative to vehicle-treated control; format: cell-based; settings: NB-4
[2] = target: LSD1/CoREST complex (Homo sapiens) (UniProt O60341+Q9UKL0); test: Potency index, ratio of trans-benzyl 1-(4-(2-aminocyclopropyl)phenylamino)-1-oxo-3-phenylpropan-2-ylcarbamate hydrochloride IC50 to compound IC50 for human recombinant LSD1/CoREST protein expressed in Escherichia coli
Chain of LSD1/CoREST complex (Homo sapiens) (Q9UKL0 whole entry, looked up, other chains not shown): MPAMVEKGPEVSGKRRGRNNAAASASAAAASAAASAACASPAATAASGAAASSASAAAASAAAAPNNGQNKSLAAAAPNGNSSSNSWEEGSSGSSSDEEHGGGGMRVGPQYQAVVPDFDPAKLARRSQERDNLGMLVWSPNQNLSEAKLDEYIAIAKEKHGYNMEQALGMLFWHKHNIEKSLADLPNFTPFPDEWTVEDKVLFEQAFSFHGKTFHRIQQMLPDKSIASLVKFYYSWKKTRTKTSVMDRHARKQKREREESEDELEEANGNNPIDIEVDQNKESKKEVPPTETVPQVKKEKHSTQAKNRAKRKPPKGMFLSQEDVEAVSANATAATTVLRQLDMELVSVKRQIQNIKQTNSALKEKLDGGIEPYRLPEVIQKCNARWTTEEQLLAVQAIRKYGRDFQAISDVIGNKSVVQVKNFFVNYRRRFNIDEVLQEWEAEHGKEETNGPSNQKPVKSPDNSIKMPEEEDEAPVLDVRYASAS

[3] = target: LSD1/CoREST complex (Homo sapiens, UniProt O60341); test: Inhibition of human recombinant LSD1/CoREST protein expressed in Escherichia coli using monomethylated H3-K4 peptide (21 amino acids) as substrate preincubated for 15 mins followed by substrate addition measured for 12 mins by HRP-coupled Ultrared detection system-based fluorescence analysis
[4] = target: Lysine-specific histone demethylase 1A (Homo sapiens) (UniProt O60341); test: Inhibition of LSD1 in human NB4 cells assessed as induction of ITGAM mRNA expression at IC50 after 24 hrs by quantitative RT-PCR analysis relative to vehicle-treated control; format: cell-based; settings: NB-4
[5] = system: MV4-11; test: Cytotoxicity against human MV4-11 cells assessed as growth inhibition after 72 hrs by CellTiter-Fluor Cell Viability assay; format: functional, cell-based; settings: MV4-11, 72 h
[6] = species on record: Homo sapiens; test: Selectivity ratio of IC50 for human recombinant MAO A to IC50 for human recombinant LSD1/CoREST
[7] = Cytotoxicity against human NB4 cells assessed as growth inhibition after 72 hrs by CellTiter-Fluor Cell Viability assay; format: functional, cell-based; settings: NB-4, 72 h
[8] = target: T1, Amine oxidase [flavin-containing] B (Homo sapiens, UniProt P27338); test: Inhibition of human recombinant MAO B expressed in Pichia pastoris using benzylamine as substrate preincubated for 15 mins followed by substrate addition by horseradish peroxidase coupled-spectrofluorimetric assay
T1 sequence (P27338 whole entry): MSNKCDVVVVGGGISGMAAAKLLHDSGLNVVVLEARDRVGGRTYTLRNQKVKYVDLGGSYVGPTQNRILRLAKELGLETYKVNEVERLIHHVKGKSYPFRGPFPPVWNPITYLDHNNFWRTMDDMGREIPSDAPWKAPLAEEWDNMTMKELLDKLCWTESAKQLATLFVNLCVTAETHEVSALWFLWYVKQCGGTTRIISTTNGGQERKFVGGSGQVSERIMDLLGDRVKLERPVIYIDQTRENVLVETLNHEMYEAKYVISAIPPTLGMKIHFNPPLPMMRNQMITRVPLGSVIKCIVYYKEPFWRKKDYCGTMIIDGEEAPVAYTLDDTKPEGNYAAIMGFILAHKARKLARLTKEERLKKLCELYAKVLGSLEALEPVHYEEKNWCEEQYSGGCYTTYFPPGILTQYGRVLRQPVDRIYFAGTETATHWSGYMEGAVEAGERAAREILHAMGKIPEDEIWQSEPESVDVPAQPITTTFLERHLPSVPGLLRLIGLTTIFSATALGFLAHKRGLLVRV

[9] = target: T2, Amine oxidase [flavin-containing] A (Homo sapiens, UniProt P21397); test: Inhibition of human recombinant MAO A expressed in Pichia pastoris using kynuramine as substrate preincubated for 15 mins followed by substrate addition by horseradish peroxidase coupled-spectrofluorimetric assay
T2 sequence (P21397 whole entry): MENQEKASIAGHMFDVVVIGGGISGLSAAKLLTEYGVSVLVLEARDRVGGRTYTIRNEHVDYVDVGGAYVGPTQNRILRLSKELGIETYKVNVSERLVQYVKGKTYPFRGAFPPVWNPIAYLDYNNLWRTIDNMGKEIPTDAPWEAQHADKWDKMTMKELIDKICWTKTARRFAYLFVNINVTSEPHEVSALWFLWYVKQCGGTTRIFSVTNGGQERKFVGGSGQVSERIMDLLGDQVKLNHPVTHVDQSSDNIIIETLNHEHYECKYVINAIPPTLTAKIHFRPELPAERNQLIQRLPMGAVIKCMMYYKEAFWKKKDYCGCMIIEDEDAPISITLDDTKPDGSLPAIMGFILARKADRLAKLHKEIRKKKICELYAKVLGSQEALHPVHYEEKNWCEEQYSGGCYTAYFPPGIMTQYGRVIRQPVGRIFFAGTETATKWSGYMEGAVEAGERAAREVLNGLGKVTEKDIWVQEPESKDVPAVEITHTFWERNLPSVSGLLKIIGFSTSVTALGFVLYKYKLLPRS

[10] = system: NB-4; test: Potency index, ratio of trans-benzyl 1-(4-(2-aminocyclopropyl)phenylamino)-1-oxo-3-phenylpropan-2-ylcarbamate hydrochloride IC50 to compound IC50 for human NB4 cells; format: functional
[11] = system: MV4-11; test: Potency index, ratio of trans-benzyl 1-(4-(2-aminocyclopropyl)phenylamino)-1-oxo-3-phenylpropan-2-ylcarbamate hydrochloride IC50 to compound IC50 for human MV4-11 cells; format: functional
[12] = Cytotoxicity against human NB4 cells assessed as growth inhibition at 100 uM after 72 hrs by CellTiter-Fluor Cell Viability assay; format: functional; settings: NB-4, 72 h

| fold change (FC) [1] | Ratio IC50 [2] | IC50 [3] | fold change (FC) [4] | Ratio IC50 [6] | IC50 [8] | IC50 [9] | Compound | IC50 [5] | IC50 [7] | Ratio IC50 [10] | Ratio IC50 [11] | inhibition at 100 µM [12] |
| --- | --- | --- | --- | --- | --- | --- | --- | --- | --- | --- | --- | --- |
| < 6 | 2 | 65 nM | < 4 |  |  |  | N[C@@H]1C[C@H]1c1ccc(NC(=O)c2cc3ccccc3[nH]2)cc1 |  |  |  |  |  |
| < 6 |  | 163 nM | < 4 |  |  |  | N[C@@H]1C[C@H]1c1ccc(NC(=O)c2ccc[nH]2)cc1 |  |  |  |  |  |
| < 6 |  | 125 nM | < 4 |  |  |  | N[C@@H]1C[C@H]1c1ccc(NC(=O)c2cccn2CC(=O)Nc2ccccc2)cc1 (relative stereo) |  |  |  |  |  |
|  |  | 304 nM |  |  |  |  | N[C@@H]1C[C@H]1c1ccc(NC(=O)CNC(=O)OCc2ccccc2)cc1 (relative stereo) |  |  |  |  |  |
| < 6 | 5 | 32 nM | < 4 | < 8 | 75800 nM | 260 nM | N[C@@H]1C[C@H]1c1ccc(NC(=O)c2cccn2C(=O)OCc2ccccc2)cc1 (relative stereo) | 6800 nM |  |  |  | 56% |
| < 6 |  | 155 nM | < 4 |  |  |  | N[C@@H]1C[C@H]1c1ccc(NC(=O)c2cccn2CC(=O)NCc2ccccc2)cc1 (relative stereo) |  |  |  |  |  |
|  |  | 1320 nM |  |  |  |  | N[C@@H]1C[C@H]1c1ccc(NC(=O)c2cccn2CC(=O)c2ccccc2)cc1 (relative stereo) |  |  |  |  |  |

The remaining lines, values behind:

| Compound | fold change (FC) [1] | Ratio IC50 [2] | IC50 [3] | fold change (FC) [4] | Ratio IC50 [6] | IC50 [8] | IC50 [9] | IC50 [5] | IC50 [7] | Ratio IC50 [10] | Ratio IC50 [11] | inhibition at 100 µM [12] |
| --- | --- | --- | --- | --- | --- | --- | --- | --- | --- | --- | --- | --- |
| N[C@@H]1C[C@H]1c1ccc(NC(=O)c2ccn(C(=O)OCc3ccccc3)c2)cc1 | < 6 | 3 | 50 nM | < 4 | < 8 | 3900 nM | 110 nM | 15200 nM | 22300 nM |  |  |  |
| Cl.N[C@@H]1C[C@H]1c1ccc(NC(=O)c2cc3ccccc3n2C(=O)OCc2ccccc2)cc1 (relative stereo) | < 6 | 3.7 | 40 nM | < 4 | < 8 | > 60000 nM | 160 nM | 5900 nM | 6500 nM | 2 | 2 |  |
| N[C@@H]1C[C@H]1c1ccc(NC(=O)c2cc3ccccc3n2CC(=O)Nc2ccccc2)cc1 (relative stereo) | < 6 | 2 | 87 nM | < 4 |  |  |  |  |  |  |  |  |
| N[C@@H]1C[C@H]1c1ccc(NC(=O)c2cc3ccccc3n2CC(=O)NCc2ccccc2)cc1 (relative stereo) |  |  | 308 nM |  |  |  |  |  |  |  |  |  |
| N[C@@H]1C[C@H]1c1ccc(NC(=O)c2cc3ccccc3n2CC(=O)c2ccccc2)cc1 (relative stereo) |  |  | 853 nM |  |  |  |  |  |  |  |  |  |
| Cl.N[C@@H]1C[C@H]1c1ccc(NC(=O)c2cn(C(=O)OCc3ccccc3)c3ccccc23)cc1 (relative stereo) | < 6 | 1.7 | 86 nM | < 4 | < 8 | > 70000 nM | 460 nM | 2500 nM | 9300 nM | 2 | 2 |  |
| N[C@@H]1C[C@H]1c1ccc(NC(=O)C2CCCN2C(=O)OCc2ccccc2)cc1 (relative stereo) |  | 2 | 61 nM |  |  |  |  |  |  |  |  |  |
| N[C@@H]1C[C@H]1c1ccc(NC(=O)C(Cc2ccccc2)NC(=O)OCc2ccccc2)cc1 (relative stereo) |  |  |  |  |  |  |  | 10200 nM | 17400 nM |  |  |  |
